Source: patent US20220267260A1, “COMPOUNDS CONTAINING A SULFONIC GROUP AS KAT INHIBITORS” (Epizyme, Inc., priority 2016, published 2022)
Counter-ions that a name gives are not always drawn.

What was measured:
KAT6A = biological target: T1, KAT6A (Homo sapiens, UniProt Q92794); assay: KAT6A enzyme inhibition assay (SAMDI mass spectrometry); assay type: biochemical; details: His-TEV-KAT6A 501-784 enzyme construct
T1 construct: His-TEV tag (N, cleaved yes); made in house

KAT5 = biological target: T2, KAT5 (Homo sapiens, UniProt Q92993); assay: KAT5 enzyme inhibition assay (SAMDI mass spectrometry); assay type: biochemical; details: His-TEV-FL KAT5-Flag enzyme construct
T2 construct: His-TEV tag (N, cleaved yes); made in house
T2 sequence (Q92993 with tags, fused parts or gaps): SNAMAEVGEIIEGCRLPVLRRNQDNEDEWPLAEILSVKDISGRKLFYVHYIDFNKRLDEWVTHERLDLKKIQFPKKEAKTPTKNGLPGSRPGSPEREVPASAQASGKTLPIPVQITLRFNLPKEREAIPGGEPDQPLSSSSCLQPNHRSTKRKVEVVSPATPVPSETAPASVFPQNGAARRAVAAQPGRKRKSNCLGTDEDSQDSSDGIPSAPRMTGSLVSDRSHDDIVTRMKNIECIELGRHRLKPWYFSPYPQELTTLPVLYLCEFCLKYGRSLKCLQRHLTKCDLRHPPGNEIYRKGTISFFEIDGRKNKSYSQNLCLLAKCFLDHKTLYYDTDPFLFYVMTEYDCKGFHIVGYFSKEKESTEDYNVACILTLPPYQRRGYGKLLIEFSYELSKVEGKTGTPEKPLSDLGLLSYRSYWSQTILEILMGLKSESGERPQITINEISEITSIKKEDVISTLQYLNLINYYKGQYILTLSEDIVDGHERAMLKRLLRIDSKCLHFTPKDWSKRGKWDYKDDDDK

T1 sequence (Q92794 with tags, fused parts or gaps): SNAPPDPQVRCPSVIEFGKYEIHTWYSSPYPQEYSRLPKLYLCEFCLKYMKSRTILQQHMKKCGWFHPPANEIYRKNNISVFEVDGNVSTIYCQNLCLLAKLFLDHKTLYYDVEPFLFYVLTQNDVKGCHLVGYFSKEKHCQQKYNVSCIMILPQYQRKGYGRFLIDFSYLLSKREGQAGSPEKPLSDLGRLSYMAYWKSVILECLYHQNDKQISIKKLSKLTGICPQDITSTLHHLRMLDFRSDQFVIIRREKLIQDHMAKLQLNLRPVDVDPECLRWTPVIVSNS

| IC50 (KAT6A) [µM] | IC50 (KAT5) [µM] | Compound |
| --- | --- | --- |
| ≤ 10 | ≤ 10 | Cc1cc(-c2ccccc2)cc(C(=O)NNS(=O)(=O)Cc2ccccc2F)c1F [Compound I-82] |
| ≤ 10 | ≤ 10 | Cc1cc(-c2ccccc2)cc(C(=O)NNS(=O)(=O)Cc2cccc(F)c2)c1F [Compound I-83] |
| ≤ 10 | ≤ 10 | Cc1cc(-c2ccccc2)cc(C(=O)NNS(=O)(=O)Cc2ccc(F)cc2)c1F [Compound I-84] |
| ≤ 10 | ≤ 10 | Cc1cc(-c2ccccc2)cc(C(=O)NNS(=O)(=O)C2CCN(C(=O)OC(C)(C)C)CC2)c1F [Compound I-88] |
| > 100 | > 100 | Cc1cc(-c2ccccc2)cc(C(=O)NNS(=O)(=O)C2CCNCC2)c1F [Compound I-89] |
| 10 to 50 | 10 to 50 | Cc1cc(-c2ccccc2)cc(C(=O)NNS(=O)(=O)C2CCN(C)CC2)c1F [Compound I-90] |
| 50 to 100 | 10 to 50 | CCN1CCC(S(=O)(=O)NNC(=O)c2cc(-c3ccccc3)cc(C)c2F)CC1 [Compound I-91] |
| > 100 | > 100 | Cc1cc(-c2ccccc2)cc(C(=O)NNS(=O)(=O)C2CCN(C(C)C)CC2)c1F [Compound I-92] |
| 10 to 50 | 10 to 50 | COCCN1CCC(S(=O)(=O)NNC(=O)c2cc(-c3ccccc3)cc(C)c2F)CC1 [Compound I-93] |
| 10 to 50 | 10 to 50 | CC(=O)N1CCC(S(=O)(=O)NNC(=O)c2cc(-c3ccccc3)cc(C)c2F)CC1 [Compound I-94] |
| 50 to 100 | > 100 | Cc1cc(-c2ccccc2)cc(C(=O)NNS(=O)(=O)C2CCCNC2)c1F (centres unmarked) [Compound I-97] |
| 10 to 50 | > 100 | Cc1cc(-c2ccccc2)cc(C(=O)NNS(=O)(=O)C2CCCN(C)C2)c1F (centres unmarked) [Compound I-98] |
| 10 to 50 | > 100 | CCN1CCCC(S(=O)(=O)NNC(=O)c2cc(-c3ccccc3)cc(C)c2F)C1 (centres unmarked) [Compound I-99] |
| 50 to 100 | > 100 | Cc1cc(-c2ccccc2)cc(C(=O)NNS(=O)(=O)C2CCCN(C(C)C)C2)c1F (centres unmarked) [Compound I-100] |
| 10 to 50 | 10 to 50 | COCCN1CCCC(S(=O)(=O)NNC(=O)c2cc(-c3ccccc3)cc(C)c2F)C1 (centres unmarked) [Compound I-101] |
| 10 to 50 | 10 to 50 | CC(=O)N1CCCC(S(=O)(=O)NNC(=O)c2cc(-c3ccccc3)cc(C)c2F)C1 (centres unmarked) [Compound I-102] |
| > 100 | > 100 | COCCN1CC(S(=O)(=O)NNC(=O)c2cccc(C)c2F)C1 [Compound I-103] |
| 10 to 50 | 50 to 100 | CCC(=O)N1CCC(S(=O)(=O)NNC(=O)c2cc(-c3ccccc3)cc(C)c2F)C1 (centres unmarked) [Compound I-104] |
| 10 to 50 | 10 to 50 | Cc1cc(-c2ccccc2)cc(C(=O)NNS(=O)(=O)C2CCN(C(=O)C(C)C)C2)c1F (centres unmarked) [Compound I-105] |
| 10 to 50 | 10 to 50 | COCCC(=O)N1CCC(S(=O)(=O)NNC(=O)c2cc(-c3ccccc3)cc(C)c2F)C1 (centres unmarked) [Compound I-106] |
| 10 to 50 | 10 to 50 | CCC(=O)N1CCC(S(=O)(=O)NNC(=O)c2cc(-c3ccccc3)cc(C)c2F)CC1 [Compound I-107] |
| 10 to 50 | ≤ 10 | Cc1cc(-c2ccccc2)cc(C(=O)NNS(=O)(=O)C2CCN(C(=O)C(C)C)CC2)c1F [Compound I-108] |

| IC50 (KAT6A) [µM] | IC50 (KAT5) [µM] | Compound |
| --- | --- | --- |
| 10 to 50 | 10 to 50 | COCCC(=O)N1CCC(S(=O)(=O)NNC(=O)c2cc(-c3ccccc3)cc(C)c2F)CC1 [Compound I-109] |
| ≤ 10 | 50 to 100 | CCC(=O)N1CCCC(S(=O)(=O)NNC(=O)c2cc(-c3ccccc3)cc(C)c2F)C1 (centres unmarked) [Compound I-110] |
| ≤ 10 | 10 to 50 | Cc1cc(-c2ccccc2)cc(C(=O)NNS(=O)(=O)C2CCCN(C(=O)C(C)C)C2)c1F (centres unmarked) [Compound I-111] |
| 10 to 50 | 10 to 50 | COCCC(=O)N1CCCC(S(=O)(=O)NNC(=O)c2cc(-c3ccccc3)cc(C)c2F)C1 (centres unmarked) [Compound I-112] |
| 10 to 50 | 50 to 100 | CCC(=O)N1CC(S(=O)(=O)NNC(=O)c2cc(-c3ccccc3)cc(C)c2F)C1 [Compound I-113] |
| 10 to 50 | > 100 | Cc1cc(-c2ccccc2)cc(C(=O)NNS(=O)(=O)C2CN(C(=O)C(C)C)C2)c1F [Compound I-114] |
| 10 to 50 | 50 to 100 | COCCC(=O)N1CC(S(=O)(=O)NNC(=O)c2cc(-c3ccccc3)cc(C)c2F)C1 [Compound I-115] |
| > 100 | > 100 | O=C(NNS(=O)(=O)C1CCCCC1)c1ccccc1F [Compound I-116] |
| 50 to 100 | > 100 | Cc1c(-c2ccccc2)ccc(F)c1C(=O)NNS(=O)(=O)C1CCCCC1 [Compound I-117] |
| ≤ 10 | 10 to 50 | Cc1cc(-c2ccccc2)cc(C(=O)NNS(=O)(=O)C2CCN(C(=O)OC(C)(C)C)C2)c1F (centres unmarked) [Compound I-118, tert-Butyl 3-((2-(4-fluoro-5-methyl-[1,1′-biphenyl]-3-carbonyl)hydrazinyl)sulfonyl)pyrrolidine-1-carboxylate] |
| 10 to 50 | 10 to 50 | Cc1cc(-c2ccccc2)cc(C(=O)NNS(=O)(=O)C2CN(C(=O)OC(C)(C)C)C2)c1F [Compound I-119, tert-Butyl 3-((2-(4-fluoro-5-methyl-[1,1′-biphenyl]-3-carbonyl)hydrazinyl)sulfonyl)azetidine-1-carboxylate] |
| > 100 | > 100 | Cc1cc(-c2ccccc2)cc(C(=O)NNS(=O)(=O)C2CNC2)c1F [Compound I-120, N′-(4-Fluoro-5-methyl-[1,1′-biphenyl]-3-carbonyl)azetidine-3-sulfonohydrazide hydrochloride] |
| 10 to 50 | 10 to 50 | Cc1cc(-c2ccccc2)cc(C(=O)NNS(=O)(=O)C2CN(C(=O)OCc3ccccc3)C2)c1F [Compound I-121, Benzyl 3-((2-(4-fluoro-5-methyl-[1,1′-biphenyl]-3-carbonyl)hydrazinyl)sulfonyl)azetidine-1-carboxylate] |
| > 100 | > 100 | Cc1nn(Cc2ccccc2)cc1C(=O)NNS(=O)(=O)c1ccccc1 [Compound I-122] |
| > 100 | > 100 | Cc1cc(F)c(-c2ccccc2)cc1C(=O)NNS(=O)(=O)c1ccccc1 [Compound I-123] |
| > 100 | > 100 | Cc1nn(-c2ccccc2)cc1C(=O)NNS(=O)(=O)c1ccccc1 [Compound I-124] |
| ≤ 10 | 10 to 50 | Cc1cccc(-c2ccc(F)c(C(=O)NNS(=O)(=O)c3ccccc3)c2)c1 [Compound I-125] |
| ≤ 10 | 50 to 100 | Cc1cc(C(=O)NNS(=O)(=O)c2ccccc2)cc(-c2ccccc2)c1F [Compound I-126] |
| 10 to 50 | > 100 | O=C(NNS(=O)(=O)c1cccc(Cl)c1)c1ccccc1F [Compound I-127] |
| 10 to 50 | 50 to 100 | Cc1c(-c2ccccc2)ccc(F)c1C(=O)NNS(=O)(=O)c1cccc(Cl)c1 [Compound I-128] |
| ≤ 10 | 10 to 50 | COc1cc(-c2ccccc2)cc(C(=O)NNS(=O)(=O)c2ccccc2)c1F [Compound I-129] |
| > 100 | > 100 | O=C(NNS(=O)(=O)c1ccccc1Cl)c1ccccc1F [Compound I-130] |

| IC50 (KAT6A) [µM] | IC50 (KAT5) [µM] | Compound |
| --- | --- | --- |
| ≤ 10 | > 100 | Cc1cccc(S(=O)(=O)NNC(=O)c2cc(-c3ccccc3)ccc2F)c1 [Compound I-131] |
| ≤ 10 | 50 to 100 | O=C(NNS(=O)(=O)c1ccccc1)c1c(F)ccc(-c2ccccn2)c1F [Compound I-132] |
| > 100 | > 100 | O=C(NN[S+]([O-])c1ccccc1)c1ccccc1F (centres unmarked) [Compound I-133] |
| > 100 | > 100 | O=C(NNC(c1ccccc1)C(F)(F)F)c1ccccc1F (centres unmarked) [Compound I-134] |
| > 100 | > 100 | Cc1cccc(F)c1C(=O)NNS(=O)(=O)c1ccccc1 [Compound I-135] |
| ≤ 10 | ≤ 10 | O=C(NNS(=O)(=O)c1ccccc1)c1c(F)c(Cl)cc(-c2ccccc2)c1F [Compound I-136] |
| 10 to 50 | 10 to 50 | Cc1cc(-c2ccccc2)cc(C(=O)NNS(=O)(=O)C2CC3CCC(C2)N3C(=O)OC(C)(C)C)c1F (centres unmarked) [Compound I-137] |
| > 100 | > 100 | O=C(NNC(=O)c1ccccc1F)c1ccccc1 [Compound I-138] |
| > 100 | > 100 | Cc1ccc(-c2ccccc2)c(F)c1C(=O)NNS(=O)(=O)c1ccccc1 [Compound I-139] |
| > 100 | 50 to 100 | Cc1cc(-c2ccccc2)cc(C(=O)NNS(=O)(=O)CC2CCNCC2)c1F [Compound I-141] |
| ≤ 10 | 10 to 50 | Cc1cc(C(=O)NNS(=O)(=O)c2ccccc2)c(F)c(-c2ccccc2)c1 [Compound I-142] |
| 10 to 50 | > 100 | O=C(NNS(=O)(=O)c1ccc(Cl)cc1)c1ccccc1F [Compound I-143] |
| ≤ 10 | > 100 | O=C(NNS(=O)(=O)c1ccccc1)c1cccc(-c2ccccc2)c1 [Compound I-144] |
| > 100 | > 100 | COc1ccccc1C(=O)NNS(=O)(=O)c1ccccc1 [Compound I-145] |
| ≤ 10 | 10 to 50 | Cc1cc(-c2ccccc2)cc(C(=O)NNS(=O)(=O)c2ccc(CO)cc2)c1F [Compound I-147] |
| > 100 | > 100 | Cc1ccccc1C(=O)NNS(=O)(=O)c1ccccc1 [Compound I-148] |
| > 100 | > 100 | O=C(NNS(=O)(=O)c1ccccc1)c1ccccc1Cl [Compound I-149] |
| > 100 | > 100 | Cc1cc(-c2ccccc2)cc(C(=O)Nc2nnc3n2CCCC3)c1F [Compound I-150] |
| > 100 | > 100 | Cc1cc(-c2ccccc2)cc(C(=O)NS(=O)(=O)N2CCCC2)c1F [Compound I-151] |
| ≤ 10 | 10 to 50 | O=C(NNS(=O)(=O)c1cccc(Cl)c1)c1cc(-c2ccccc2)ccc1F [Compound I-152] |
